In patent US9839629B2, “Inhibitors of the renal outer medullary potassium channel” (Merck Sharp & Dohme Corp., priority 2013, dated 2017):

Biological target: T1, ROMK (Kir1.1) channel (Homo sapiens, UniProt P48048)
T1 sequence (P48048 1-391): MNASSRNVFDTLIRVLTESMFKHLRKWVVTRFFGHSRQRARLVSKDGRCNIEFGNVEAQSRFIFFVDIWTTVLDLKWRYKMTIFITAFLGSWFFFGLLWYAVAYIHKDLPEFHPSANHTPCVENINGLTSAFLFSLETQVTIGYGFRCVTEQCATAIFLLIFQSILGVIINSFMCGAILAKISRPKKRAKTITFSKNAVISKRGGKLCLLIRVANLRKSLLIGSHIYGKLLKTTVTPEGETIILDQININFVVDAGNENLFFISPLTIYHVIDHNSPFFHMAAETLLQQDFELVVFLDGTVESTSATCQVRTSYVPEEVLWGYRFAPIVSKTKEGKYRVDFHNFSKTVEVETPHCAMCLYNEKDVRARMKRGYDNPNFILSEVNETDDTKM
Assay: Thallium Flux Assay
Format: cell-based
How it was run: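 Thallium flux assay as described in WO 2013/062900. Compounds supplied as HCl salts were tested in salt form.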

Row | Structure (SMILES) | IC50 [nM]
1 | CC1=C(N2CCC3(CCN(C[C@@H](O)c4ccc(-n5cnnn5)nc4C)CC3)CC2)COC1=O [Example 46, (S)-4-(9-(2-hydroxy-2-(2-methyl-6-(1H-tetrazol-1-yl)pyridin-3-yl)ethyl)-3,9-diazaspiro[5.5]undecan-3-yl)-3-methylfuran-2(5H)-one] | 38
2 | Cc1c([C@@H](O)CN2CCC3(CC2)CCN(C2=C(c4ccncc4)C(=O)OC2)CC3)ccc2c1COC2=O [Example 42, (R)-5-(1-hydroxy-2-(9-(5-oxo-4-(pyridin-4-yl)-2,5-dihydrofuran-3-yl)-3,9-diazaspiro[5.5]undecan-3-yl)ethyl)-4-methylisobenzofuran-1(3H)-one] | 352
3 | Cc1nc(-n2cnnn2)ccc1[C@@H](O)CN1CCC2(CC1)CCN(C1=CC(=O)OC1)CC2 [Example 13, (R)-4-(9-(2-hydroxy-2-(2-methyl-6-(1H-tetrazol-1-yl)pyridin-3-yl)ethyl)-3,9-diazaspiro[5.5]undecan-3-yl)furan-2(5H)-one] | 14
4 | COc1cc(C#N)ncc1[C@@H](O)CN1CCC2(CC1)CCN(C1=CC(=O)OC1)CC2 [Example 9, (R)-5-(1-hydroxy-2-(9-(5-oxo-2,5-dihydrofuran-3-yl)-3,9-diazaspiro[5.5]undecan-3-yl)ethyl)-4-methoxypicolinonitrile] | 220
5 | Cc1c([C@@H](O)CN2CCC3(CC2)CCN(C2=CC(=O)OC2C)CC3)ccc2c1COC2=O (stereo partly drawn) [Example 37, 5-((1R)-1-hydroxy-2-(9-(2-methyl-5-oxo-2,5-dihydrofuran-3-yl)-3,9-diazaspiro[5.5]undecan-3-yl)ethyl)-4-methylisobenzofuran-1(3H)-one] | 140
6 | Cc1c([C@@H](O)CN2CCC3(CC2)CCN(C2=CC(=O)OC2)C(C)C3)ccc2c1COC2=O (single isomer, unassigned) [Example 33] | 42
7 | Cc1c(N2CCC3(CCN(C[C@@H](O)c4ccc5c(ccc6nnnn65)c4)CC3)CC2)c(=O)c1=O [Example 89, (S)-3-(9-(2-hydroxy-2-(tetrazolo[1,5-a]quinolin-7-yl)ethyl)-3,9-diazaspiro[5.5]undecan-3-yl)-4-methylcyclobut-3-ene-1,2-dione] | 257
8 | CC1=C(N2CCC3(CCN(C[C@@H](O)c4ccnc(-n5cnnn5)c4)CC3)CC2)COC1=O [Example 62, (S)-4-(9-(2-(2-(1H-tetrazol-1-yl)pyridin-4-yl)-2-hydroxyethyl)-3,9-diazaspiro[5.5]undecan-3-yl)-3-methylfuran-2(5H)-one] | 39
9 | Cc1cc(-n2cnnn2)ccc1[C@@H](O)CN1CCC2(CC1)CCN(C1=CC(=O)CC1)CC2 [Example 73, (R)-3-(9-(2-hydroxy-2-(2-methyl-4-(1H-tetrazol-1-yl)phenyl)ethyl)-3,9-diazaspiro[5.5]undecan-3-yl)cyclopent-2-enone] | 179
10 | CC1=C(N2CCC3(CCN(C[C@@H](O)c4ccc(-n5cnnn5)nc4C)CC3)CC2)CCC1=O [Example 75, (S)-3-(9-(2-hydroxy-2-(2-methyl-6-(1H-tetrazol-1-yl)pyridin-3-yl)ethyl)-3,9-diazaspiro[5.5]undecan-3-yl)-2-methylcyclopent-2-enone] | 279

Continued by falling IC50, values first:

Row | IC50 [nM] | Structure (SMILES)
11 | 433 | Cc1c([C@@H](O)CN2CCC3(CC2)CCN(C2=CC(=O)OC2)C(=O)C3)ccc2c1COC2=O [Example 27, (R)-9-(2-hydroxy-2-(4-methyl-1-oxo-1,3-dihydroisobenzofuran-5-yl)ethyl)-3-(5-oxo-2,5-dihydrofuran-3-yl)-3,9-diazaspiro[5.5]undecan-2-one]
12 | 379 | O=C1C=C(N2CCC3(CCN(C(=O)Cc4cnc(-n5cnnn5)cn4)CC3)CC2)CO1 [Example 106, 4-(9-{[5-(1H-tetrazol-1-yl)pyrazin-2-yl]acetyl}-3,9-diazaspiro[5.5]undec-3-yl)furan-2(5H)-one]
13 | 165 | CO[C@H](CN1CCC2(CC1)CCN(C1=CC(=O)OC1)CC2)c1ccc2c(c1C)COC2=O [Example 90, (S)-5-(1-methoxy-2-(9-(5-oxo-2,5-dihydrofuran-3-yl)-3,9-diazaspiro[5.5]undecan-3-yl)ethyl)-4-methylisobenzofuran-1(3H)-one]
14 | 140 | CC1=C(N2CCC3(CCN(C[C@H](O)c4ccc(-n5cnnn5)cc4C)CC3)CC2)CCC1=O [Example 77, (R)-3-(9-(2-hydroxy-2-(2-methyl-4-(1H-tetrazol-1-yl)phenyl)ethyl)-3,9-diazaspiro[5.5]undecan-3-yl)-2-methylcyclopent-2-enone]
15 | 63 | Cc1c([C@H](O)CN2CCC3(CC2)CCN(C2=CC(=O)OC2)CC3)ccc2c1COC2=O [Example 5, (S)-5-(1-hydroxy-2-(9-(5-oxo-2,5-dihydrofuran-3-yl)-3,9-diazaspiro[5.5]undecan-3-yl)ethyl)-4-methylisobenzofuran-1(3H)-one]
16 | 40 | Cc1cc(-n2cnnn2)ccc1[C@@H](O)CN1CCC2(CC1)CCN(C1=CC(=O)OC1)CC2 [Example 24, (R)-4-(9-(2-hydroxy-2-(2-methyl-4-(1H-tetrazol-1-yl)phenyl)ethyl)-3,9-diazaspiro[5.5]undecan-3-yl)furan-2(5H)-one]
17 | 22 | CC1=C(N2CCC3(CCN(C[C@H](O)c4cccc(-n5cnnn5)n4)CC3)CC2)COC1=O [Example 6A, (S)-4-(9-(2-(6-(1H-tetrazol-1-yl)pyridin-2-yl)-2-hydroxyethyl)-3,9-diazaspiro[5.5]undecan-3-yl)-3-methylfuran-2(5H)-one]
18 | 17 | O=C1C=C(N2CCC3(CCN(CCc4ccc5c(c4)COC5=O)CC3)CC2)CO1 [Example 1, 5-(2-(9-(5-oxo-2,5-dihydrofuran-3-yl)-3,9-diazaspiro[5.5]undecan-3-yl)ethyl)isobenzofuran-1(3H)-one]
19 | 17 | O=C1C=C(N2CCC3(CCN(C[C@H](O)c4ccc(-n5cnnn5)cc4F)CC3)CC2)CO1 [Example 22, (R)-4-(9-(2-(2-fluoro-4-(1H-tetrazol-1-yl)phenyl)-2-hydroxyethyl)-3,9-diazaspiro[5.5]undecan-3-yl)furan-2(5H)-one]
20 | 16 | CC1=C(N2CCC3(CCN(C[C@H](O)c4ccc(-n5cnnn5)nc4C)CC3)CC2)COC1=O [Example 45, (R)-4-(9-(2-hydroxy-2-(2-methyl-6-(1H-tetrazol-1-yl)pyridin-3-yl)ethyl)-3,9-diazaspiro[5.5]undecan-3-yl)-3-methylfuran-2(5H)-one]
